From patent US20030087906A1, “NITROGEN SUBSTITUTED BIARYL PURINE DERIVATIVES AS POTENT ANTIPROLIFERATIVE AGENTS” (priority 2001, published 2003)

Experiments:
Assay in all cases: NCI 60-cell line growth inhibition assay
Type in all cases: cell-based
[1] = test system: BT-549; details: Homo sapiens; Breast, BT-549
[2] = test system: MCF7; details: Homo sapiens; Breast, MCF7
[3] = test system: MDA-MB-435; details: Homo sapiens; Breast, MDA-MB-435
[4] = test system: NCI/ADR-RES; details: Homo sapiens; Breast, NCI/ADR-RES
[5] = test system: T-47D; details: Homo sapiens, T47D; Breast, T-47D
[6] = test system: SF-268; details: Homo sapiens; CNS, SF-268
[7] = test system: SF-295; details: Homo sapiens; CNS, SF-295
[8] = test system: SF-539; details: Homo sapiens; CNS, SF-539
[9] = test system: SNB-19; details: Homo sapiens; CNS, SNB-19
[10] = test system: U251; details: Homo sapiens, U-251; CNS, U251
[11] = test system: COLO 205; details: Homo sapiens; Colon, COLO 205
[12] = test system: HCC-2998; details: Homo sapiens; Colon, HCC-2998
[13] = test system: HCT-116; details: Homo sapiens; Colon, HCT-116
[14] = test system: HCT-15; details: Homo sapiens; Colon, HCT-15
[15] = test system: HT29; details: Homo sapiens, HT-29; Colon, HT29
[16] = test system: KM12; details: Homo sapiens; Colon, KM12
[17] = test system: SW-620; details: Homo sapiens; Colon, SW-620
[18] = test system: CCRF-CEM; details: Homo sapiens; Leukemia, CCRF-CEM
[19] = test system: HL-60(TB); details: Homo sapiens; Leukemia, HL-60(TB)
[20] = test system: K-562; details: Homo sapiens, K562; Leukemia, K-562
[21] = test system: MOLT-4; details: Homo sapiens; Leukemia, MOLT-4
[22] = test system: RPMI-8226; details: Homo sapiens; Leukemia, RPMI-8226
[23] = test system: SR; details: Homo sapiens; Leukemia, SR
[24] = test system: LOX IMVI; details: Homo sapiens; Melanoma, LOX IMVI
[25] = test system: M14; details: Homo sapiens; Melanoma, M14
[26] = test system: MALME-3M; details: Homo sapiens; Melanoma, MALME-3M
[27] = test system: SK-MEL-2; details: Homo sapiens; Melanoma, SK-MEL-2
[28] = test system: SK-MEL-28; details: Homo sapiens; Melanoma, SK-MEL-28
[29] = test system: SK-MEL-5; details: Homo sapiens; Melanoma, SK-MEL-5
[30] = test system: UACC-257; details: Homo sapiens; Melanoma, UACC-257
[31] = test system: UACC-62; details: Homo sapiens; Melanoma, UACC-62
[32] = test system: A549/ATCC; details: Homo sapiens; Non-Small Cell Lung, A549/ATCC
[33] = test system: EKVX; details: Homo sapiens; Non-Small Cell Lung, EKVX
[34] = test system: HOP-62; details: Homo sapiens; Non-Small Cell Lung, HOP-62
[35] = test system: NCI-H23; details: Homo sapiens; Non-Small Cell Lung, NCI-H23
[36] = test system: NCI-H322M; details: Homo sapiens; Non-Small Cell Lung, NCI-H322M
[37] = test system: NCI-H460; details: Homo sapiens; Non-Small Cell Lung, NCI-H460
[38] = test system: NCI-H522; details: Homo sapiens; Non-Small Cell Lung, NCI-H522
[39] = test system: IGROV1; details: Homo sapiens, IGROV-1; Ovarian, IGROV1
[40] = test system: OVCAR-3; details: Homo sapiens; Ovarian, OVCAR-3
[41] = test system: OVCAR-4; details: Homo sapiens; Ovarian, OVCAR-4
[42] = test system: OVCAR-5; details: Homo sapiens; Ovarian, OVCAR-5
[43] = test system: OVCAR-8; details: Homo sapiens; Ovarian, OVCAR-8
[44] = test system: SK-OV-3; details: Homo sapiens; Ovarian, SK-OV-3
[45] = test system: DU-145; details: Homo sapiens; Prostate, DU-145
[46] = test system: PC-3; details: Homo sapiens; Prostate, PC-3
[47] = test system: 786-0; details: Homo sapiens; Renal, 786-0
[48] = test system: ACHN; details: Homo sapiens; Renal, ACHN
[49] = test system: CAKI-1; details: Homo sapiens; Renal, CAKI-1
[50] = test system: TK-10; details: Homo sapiens; Renal, TK-10
[51] = test system: UO-31; details: Homo sapiens; Renal, UO-31

C=Cc1ccc(-c2ccc(CNc3nc(N[C@H](CC)CO)nc4c3ncn4C(C)C)cc2)cc1 [Compound 33]
GI50 [1]: 51.3 µM | GI50 [2]: 5.2 µM | GI50 [3]: 4.9 µM | GI50 [4]: 6.3 µM | GI50 [5]: 3.9 µM | GI50 [6]: 6.3 µM | GI50 [7]: 7.8 µM | GI50 [8]: 89.1 µM | GI50 [9]: 38 µM | GI50 [10]: 3.7 µM | GI50 [11]: 7.8 µM | GI50 [12]: > 1000 µM | GI50 [13]: 6.2 µM | GI50 [14]: 8.9 µM | GI50 [15]: 8.9 µM | GI50 [16]: 4.1 µM | GI50 [17]: 2.9 µM | GI50 [18]: 4.6 µM | GI50 [19]: 3.2 µM | GI50 [20]: 3.1 µM | GI50 [21]: 3.8 µM | GI50 [22]: 1.5 µM | GI50 [23]: 4.5 µM | GI50 [24]: 16.6 µM | GI50 [25]: 7.8 µM | GI50 [26]: 11.7 µM | GI50 [27]: > 1000 µM | GI50 [28]: 5.9 µM | GI50 [29]: 16.2 µM | GI50 [30]: 75.9 µM | GI50 [31]: 8.3 µM | GI50 [32]: 4.6 µM | GI50 [33]: 6.9 µM | GI50 [34]: > 1000 µM | GI50 [35]: 26.3 µM | GI50 [36]: 38.9 µM | GI50 [37]: 25.7 µM | GI50 [38]: 4.2 µM | GI50 [39]: 10 µM | GI50 [40]: > 1000 µM | GI50 [41]: 31.6 µM | GI50 [42]: > 1000 µM | GI50 [43]: 6.6 µM | GI50 [44]: > 1000 µM | GI50 [45]: 17.8 µM | GI50 [46]: > 1000 µM | GI50 [47]: 18.6 µM | GI50 [48]: 5.2 µM | GI50 [49]: 4.4 µM | GI50 [50]: 8.3 µM | GI50 [51]: 8.1 µM
